One data set has as its system Candida tropicalis. The data set can be described thus: Antimicrobial activity against Candida tropicalis ATCC 37097. In kind it is functional.
In another data set the test system is Proteus vulgaris. The data set can be described thus: Antimicrobial activity against Proteus vulgaris ATCC 49132. In kind it is functional.
Another data set relates to Staphylococcus aureus. Kind of data set: Antimicrobial activity against Staphylococcus aureus ATCC 29213. The data set is classed as functional.
Data set [1] in a line: Hemolytic activity in human type A RBC. The data set is classed as ADME, cell-based, Erythrocyte. To be noted: human type A red blood cells, read-out: HD50 (the source's name).
The next data set relates to Kluyveromyces marxianus. Kind of data set: Antimicrobial activity against Candida kefyr ATCC 37095. The data set is classed as functional.
A further data set concerns CEM-SS (Homo sapiens). Kind of data set: Cytotoxicity against human CEM-SS cells.
The subject of data set [2] is Human immunodeficiency virus 1. Kind of data set: Antiviral activity against HIV1. The data set is classed as functional, organism-based.

As a reminder, the MIC is the lowest concentration found to suppress growth. Read a high MIC as weaker potency. By IC50 is commonly meant the concentration that inhibits the measured activity by half. As a reminder, the EC50 is the concentration giving half of the maximal effect. A low value points to greater potency.

The structures appear in SMILES notation. In brackets after ≈: the same amount, converted by molar mass. Where a SMILES comes first, the peptide text is derived from it. Bridges are numbered along the chain shown (N, C = ends).

In the case of `CC[C@H](C)[C@@H]1NC(=O)[C@@H]2CSSC[C@@H]3NC(=O)[C@H](C(C)C)NC(=O)[C@H](CCCCN)NC(=O)[C@H](CC(N)=O)NC(=O)[C@H](CCCCN)NC(=O)[C@@H]4CSSC[C@H](NC(=O)[C@H](CO)NC(=O)[C@H](CCC(=O)O)NC(=O)CNC(=O)[C@H](CSSC[C@H](NC(=O)CNC(=O)[C@H](CC(C)C)NC(=O)[C@H](C)NC(=O)[C@H](C)NC(=O)[C@H](CO)NC1=O)C(=O)N[C@@H](CO)C(=O)N4)NC(=O)[C@@H]1CCCN1C(=O)[C@H]([C@@H](C)CC)NC(=O)CNC(=O)[C@H](CC(N)=O)NC(=O)[C@H](CCCNC(=N)N)NC(=O)[C@H](Cc1ccc(O)cc1)NC3=O)C(=O)N[C@@H](C(C)C)C(=O)N[C@@H](Cc1c[nH]c3ccccc13)C(=O)N[C@@H]([C@@H](C)CC)C(=O)N1CCC[C@H]1C(=O)N2` [CIRCULIN A] (cyclo(AALGCSCKNKVCYRNGIPCGESCVWIPCIS); disulfide 5-19, 7-23, 12-28), the minimum inhibitory concentration (MIC) turned out to be 19.4 µM (≈ 61.1 µg/mL) with Candida tropicalis, 54.6 µM (≈ 172 µg/mL) against Proteus vulgaris, 0.19 µM (≈ 0.599 µg/mL) against Staphylococcus aureus and 18.6 µM (≈ 58.6 µg/mL) in the data set on Kluyveromyces marxianus. In data set [1], the HC50 was 1.02 mM. This molecule also gave a concentration for half-maximal inhibition (IC50) in the data set with CEM-SS (Homo sapiens) of 0.5 µM.

`CC[C@H](C)[C@@H]1NC(=O)[C@@H]2CSSC[C@@H]3NC(=O)[C@H](C(C)C)NC(=O)[C@H](CCCCN)NC(=O)[C@H](CO)NC(=O)[C@H](CCCCN)NC(=O)[C@@H]4CSSC[C@H](NC(=O)[C@H](CO)NC(=O)[C@H](CCC(=O)O)NC(=O)CNC(=O)[C@H](CSSC[C@H](NC(=O)CNC(=O)[C@H](C)NC(=O)[C@H](C(C)C)NC(=O)[C@H](CO)NC(=O)[C@H]([C@@H](C)O)NC1=O)C(=O)N[C@@H](CO)C(=O)N4)NC(=O)[C@@H]1CCCN1C(=O)[C@H]([C@@H](C)CC)NC(=O)CNC(=O)[C@H](CC(N)=O)NC(=O)[C@H](CCCNC(=N)N)NC(=O)[C@H](Cc1ccc(O)cc1)NC3=O)C(=O)N[C@@H](C(C)C)C(=O)N[C@@H](Cc1ccccc1)C(=O)N[C@@H]([C@@H](C)CC)C(=O)N1CCC[C@H]1C(=O)N2` [CIRCULIN C] (cyclo(AGCSCKSKVCYRNGIPCGESCVFIPCITSV); disulfide 3-17, 5-21, 10-26) had a 50% inhibitory concentration (IC50) in the data set with CEM-SS (Homo sapiens) of 0.5 µM.

On to `CC[C@H](C)[C@@H]1NC(=O)[C@H](CO)NC(=O)[C@H]([C@@H](C)O)NC(=O)[C@H](Cc2ccc(O)cc2)NC(=O)[C@@H]2CSSC[C@@H]3NC(=O)[C@H](C(C)C)NC(=O)[C@H](CCCCN)NC(=O)[C@H](CC(N)=O)NC(=O)[C@H](CCC(=O)O)NC(=O)[C@@H]4CSSC[C@H](NC(=O)[C@H](CO)NC(=O)[C@H](CCC(=O)O)NC(=O)CNC(=O)[C@H](CSSC[C@H](NC(=O)[C@H](CC(N)=O)NC(=O)[C@H](Cc5ccccc5)NC1=O)C(=O)N[C@@H](CCCCN)C(=O)N4)NC(=O)[C@@H]1CCCN1C(=O)[C@H]([C@@H](C)CC)NC(=O)[C@H](CCCCN)NC(=O)[C@H](CC(=O)O)NC(=O)[C@H](Cc1cnc[nH]1)NC(=O)[C@H](Cc1ccc(O)cc1)NC3=O)C(=O)N[C@@H](C(C)C)C(=O)N[C@@H](Cc1c[nH]c3ccccc13)C(=O)N[C@@H]([C@@H](C)CC)C(=O)N1CCC[C@H]1C(=O)N2` [CIRCULIN D] (cyclo(CENKVCYHDKIPCGESCVWIPCYTSIFNCK); disulfide 1-17, 6-22, 13-29), for which, in the data set on CEM-SS (Homo sapiens), half-maximal inhibition (IC50) was put at 0.5 µM.

In the data set with CEM-SS (Homo sapiens), `CC[C@H](C)[C@@H]1NC(=O)[C@H](CCCCN)NC(=O)[C@H](CC(=O)O)NC(=O)[C@H](Cc2cnc[nH]2)NC(=O)[C@H](Cc2ccc(O)cc2)NC(=O)[C@@H]2CSSC[C@@H]3NC(=O)[C@@H]4CCCN4C(=O)[C@H]([C@@H](C)CC)NC(=O)[C@H](Cc4c[nH]c5ccccc45)NC(=O)[C@H](C(C)C)NC(=O)[C@@H]4CSSC[C@H](NC(=O)[C@H](CCCCN)NC(=O)[C@H](CSSC[C@H](NC(=O)[C@@H]5CCCN5C1=O)C(=O)NCC(=O)N[C@@H](CCC(=O)O)C(=O)N[C@@H](CO)C(=O)N4)NC(=O)[C@H](CC(N)=O)NC(=O)[C@H](Cc1ccccc1)NC(=O)[C@H](C(C)C)NC(=O)[C@H](CO)NC(=O)[C@H]([C@@H](C)O)NC(=O)[C@H](CC(C)C)NC3=O)C(=O)N[C@@H](CCC(=O)O)C(=O)N[C@@H](CC(N)=O)C(=O)N[C@@H](CCCCN)C(=O)N[C@@H](C(C)C)C(=O)N2` [CIRCULIN E] (cyclo(CENKVCYHDKIPCGESCVWIPCLTSVFNCK); disulfide 1-17, 6-22, 13-29) yielded a 50% inhibitory concentration (IC50) of 0.5 µM.

In the data set with CEM-SS (Homo sapiens), `CC[C@H](C)[C@@H]1NC(=O)[C@H](C)NC(=O)[C@H](C)NC(=O)[C@H](CO)NC(=O)[C@H]([C@@H](C)CC)NC(=O)[C@@H]2CSSC[C@@H]3NC(=O)[C@H](C(C)C)NC(=O)[C@H](CCCCN)NC(=O)[C@H](CC(N)=O)NC(=O)[C@H](CCCCN)NC(=O)[C@@H]4CSSC[C@H](NC(=O)[C@H](CO)NC(=O)[C@H](CCC(=O)O)NC(=O)CNC(=O)[C@H](CSSC[C@H](NC(=O)CNC1=O)C(=O)N[C@@H](CO)C(=O)N4)NC(=O)[C@@H]1CCCN1C(=O)[C@H]([C@@H](C)CC)NC(=O)[C@H](C)NC(=O)[C@H](CCCNC(=N)N)NC(=O)[C@H](Cc1ccc(O)cc1)NC3=O)C(=O)N[C@@H](C(C)C)C(=O)N[C@@H](Cc1c[nH]c3ccccc13)C(=O)N[C@@H]([C@@H](C)CC)C(=O)N1CCC[C@H]1C(=O)N2` [CIRCULIN F] (cyclo(AAIGCSCKNKVCYRAIPCGESCVWIPCIS); disulfide 5-18, 7-22, 12-27) registered an IC50 of 0.5 µM.

With `CC(C)C[C@@H]1NC(=O)[C@H](C(C)C)NC(=O)[C@H](Cc2ccc(O)cc2)NC(=O)[C@@H]2CSSC[C@@H]3NC(=O)[C@H]([C@@H](C)O)NC(=O)[C@@H]4CSSC[C@H](NC(=O)[C@H](C)NC(=O)[C@H]([C@@H](C)O)NC(=O)CNC(=O)[C@H](CC(N)=O)NC(=O)[C@H](CCCCN)NC(=O)[C@H](Cc5ccccc5)NC(=O)[C@H](CSSC[C@H](NC(=O)[C@@H]5CCCN5C1=O)C(=O)N[C@@H](Cc1ccccc1)C(=O)N[C@@H]([C@@H](C)O)C(=O)N[C@@H](C(C)C)C(=O)NCC(=O)N4)NC(=O)[C@H](CCC(N)=O)NC(=O)[C@H](CO)NC(=O)[C@H](CO)NC(=O)[C@H]([C@@H](C)O)NC3=O)C(=O)NCC(=O)N[C@@H](CCC(=O)O)C(=O)N[C@@H](CO)C(=O)N2` [CYCLOVIOLIN B] (cyclo(ACGESCYVLPCFTVGCTCTSSQCFKNGT); disulfide 2-16, 6-18, 11-23), in data set [2], the midpoint of the response, the EC50, lay at 0.13 µM. For the same molecule, in the data set on CEM-SS (Homo sapiens), the concentration for half-maximal inhibition (IC50) is 0.56 µM.

For the molecule `CC[C@H](C)[C@@H]1NC(=O)CNC(=O)[C@H](CC(N)=O)NC(=O)[C@H](CCCNC(=N)N)NC(=O)[C@H](Cc2ccc(O)cc2)NC(=O)[C@@H]2CSSC[C@@H]3NC(=O)[C@@H]4CCCN4C(=O)[C@H]([C@@H](C)CC)NC(=O)[C@H](Cc4ccccc4)NC(=O)[C@H](C(C)C)NC(=O)[C@@H]4CSSC[C@H](NC(=O)[C@H](CO)NC(=O)[C@H](CSSC[C@H](NC(=O)[C@@H]5CCCN5C1=O)C(=O)NCC(=O)N[C@@H](CCC(=O)O)C(=O)N[C@@H](CO)C(=O)N4)NC(=O)CNC(=O)[C@H](C)NC(=O)[C@H](C(C)C)NC(=O)[C@H]([C@@H](C)O)NC(=O)[C@H]([C@@H](C)O)NC(=O)[C@H](CC(C)C)NC3=O)C(=O)N[C@@H](CCCCN)C(=O)N[C@@H](CC(N)=O)C(=O)N[C@@H](CCCCN)C(=O)N[C@@H](C(C)C)C(=O)N2` [CYCLOVIOLIN C] (cyclo(AGCSCKNKVCYRNGIPCGESCVFIPCLTTV); disulfide 3-17, 5-21, 10-26), the EC50 in data set [2] was 0.13 µM. In the data set with CEM-SS (Homo sapiens), this molecule came in with an IC50 of 0.56 µM.

As to `CC[C@H](C)[C@@H]1NC(=O)[C@H](C)NC(=O)[C@H](C)NC(=O)[C@H](CO)NC(=O)[C@H]([C@@H](C)CC)NC(=O)[C@@H]2CSSC[C@@H]3NC(=O)[C@H](C(C)C)NC(=O)[C@H](CCCCN)NC(=O)[C@H](CC(N)=O)NC(=O)[C@H](CCCCN)NC(=O)[C@@H]4CSSC[C@H](NC(=O)[C@H](CO)NC(=O)[C@H](CCC(=O)O)NC(=O)CNC(=O)[C@H](CSSC[C@H](NC(=O)CNC1=O)C(=O)N[C@@H](CO)C(=O)N4)NC(=O)[C@@H]1CCCN1C(=O)[C@H](Cc1ccccc1)NC(=O)CNC(=O)[C@H](CC(N)=O)NC(=O)[C@H](CCCNC(=N)N)NC(=O)[C@H](Cc1ccc(O)cc1)NC3=O)C(=O)N[C@@H](C(C)C)C(=O)N[C@@H](Cc1ccccc1)C(=O)N[C@@H]([C@@H](C)CC)C(=O)N1CCC[C@H]1C(=O)N2` [CYCLOVIOLIN D] (cyclo(AAIGCSCKNKVCYRNGFPCGESCVFIPCIS); disulfide 5-19, 7-23, 12-28), the EC50 in data set [2] turned out to be 0.13 µM. This molecule also returned a 50% inhibitory concentration (IC50) with CEM-SS (Homo sapiens) of 0.56 µM.

Consider `CC[C@H](C)[C@@H]1NC(=O)[C@H](C)NC(=O)[C@H](C)NC(=O)[C@H](CO)NC(=O)[C@H]([C@@H](C)CC)NC(=O)[C@@H]2CSSC[C@@H]3NC(=O)[C@H](C(C)C)NC(=O)[C@H](CCCCN)NC(=O)[C@H](CC(N)=O)NC(=O)[C@H](CCCCN)NC(=O)[C@@H]4CSSC[C@H](NC(=O)[C@H](CO)NC(=O)[C@H](CCC(=O)O)NC(=O)CNC(=O)[C@H](CSSC[C@H](NC(=O)CNC1=O)C(=O)N[C@@H](CO)C(=O)N4)NC(=O)[C@@H]1CCCN1C(=O)[C@H]([C@@H](C)CC)NC(=O)[C@H](C(C)C)NC(=O)CNC(=O)[C@H](CC(N)=O)NC(=O)[C@H](CCCNC(=N)N)NC(=O)[C@H](Cc1ccc(O)cc1)NC3=O)C(=O)N[C@@H](C(C)C)C(=O)N[C@@H](Cc1ccccc1)C(=O)N[C@@H]([C@@H](C)CC)C(=O)N1CCC[C@H]1C(=O)N2` [CYCLOVIOLN A] (cyclo(AAIGCSCKNKVCYRNGVIPCGESCVFIPCIS); disulfide 5-20, 7-24, 12-29), for which a half-maximal response in data set [2] (EC50) required 0.13 µM. The concentration for half-maximal inhibition (IC50) in the data set with CEM-SS (Homo sapiens) was 0.56 µM.

Source of the values: ChEMBL document CHEMBL1799917, “Isolation, sequencing, and structure-activity relationships of cyclotides” (J Nat Prod, 2010).
